Experimental data reported in the NIST ThermoML archive (doi:10.1021/je201283n).

Details: Liquid, isochoric method

CCn1cc[n+](C)c1.N#CN=C=[N-] [1-ethyl-3-methylimidazolium dicyanamide]
Details | mass density [kg/m3]
256.82 K, 20357 kPa | 1142.71
256.92 K, 29975 kPa | 1145.41
256.97 K, 10611 kPa | 1139.49
257.12 K, 1250.8 kPa | 1136.35
261.97 K, 9950.2 kPa | 1135.94
262.11 K, 19886 kPa | 1139.04
262.33 K, 39980 kPa | 1144.93
262.46 K, 619.6 kPa | 1132.49
267.67 K, 20023 kPa | 1135.45
267.67 K, 39943 kPa | 1141.75
267.7 K, 9753.2 kPa | 1132.18
267.7 K, 9894 kPa | 1132.04
267.7 K, 29879 kPa | 1138.56
267.7 K, 29968 kPa | 1138.56
267.7 K, 49706 kPa | 1144.45
267.71 K, 20196 kPa | 1135.44
267.71 K, 40066 kPa | 1141.75
267.71 K, 49662 kPa | 1144.45
268.06 K, 649.7 kPa | 1128.69
273.25 K, 29805 kPa | 1134.96
273.34 K, 49967 kPa | 1141.26
273.4 K, 39951 kPa | 1138.06
273.49 K, 19943 kPa | 1131.55
273.51 K, 10041 kPa | 1128.22
273.55 K, 60051 kPa | 1143.95
274.21 K, 775.7 kPa | 1124.56
278.57 K, 59071 kPa | 1140.8
279.2 K, 40050 kPa | 1134.45
279.22 K, 50024 kPa | 1137.55
279.41 K, 30010 kPa | 1131.04
279.59 K, 10349 kPa | 1124.23
279.65 K, 9960.6 kPa | 1124.1
279.66 K, 20569 kPa | 1127.7
280.01 K, 1016.8 kPa | 1120.72
280.04 K, 1077.6 kPa | 1120.72
285.08 K, 50002 kPa | 1133.94
285.13 K, 60064 kPa | 1137.04
285.39 K, 9816.5 kPa | 1120.27
285.42 K, 40116 kPa | 1130.53
285.43 K, 19560 kPa | 1123.61
285.44 K, 19459 kPa | 1123.61
285.45 K, 9814.9 kPa | 1120.27
285.5 K, 20153 kPa | 1123.73
285.51 K, 30235 kPa | 1127.2
286.62 K, 2009 kPa | 1116.68
291.09 K, 59995 kPa | 1133.42
291.45 K, 50059 kPa | 1130.01
291.47 K, 9754 kPa | 1116.28
291.47 K, 50178 kPa | 1130.13
291.51 K, 40153 kPa | 1126.69
291.61 K, 19904 kPa | 1119.75
291.79 K, 29944 kPa | 1123.08
297.62 K, 60101 kPa | 1129.48
297.75 K, 50232 kPa | 1126.16
297.91 K, 20011 kPa | 1115.75
297.98 K, 30141 kPa | 1119.22
298.08 K, 1020.2 kPa | 1108.78
298.16 K, 103.4 kPa | 1108.35
298.16 K, 40265 kPa | 1122.54
303.94 K, 60074 kPa | 1125.65
304.2 K, 39942 kPa | 1118.71
304.23 K, 49724 kPa | 1122.03
304.28 K, 29918 kPa | 1115.22
304.34 K, 10634 kPa | 1108.27
310.52 K, 20049 kPa | 1107.77
310.57 K, 59616 kPa | 1121.51
310.65 K, 49941 kPa | 1118.17
310.81 K, 40003 kPa | 1114.68
311.24 K, 1092 kPa | 1100.23
317.17 K, 9765 kPa | 1099.76
317.19 K, 29905 kPa | 1107.23
317.23 K, 59899 kPa | 1117.62
317.44 K, 50073 kPa | 1114.13
324.19 K, 60082 kPa | 1113.57
324.28 K, 20103 kPa | 1099.19
325.02 K, 1127.1 kPa | 1091.44
331.28 K, 30008 kPa | 1098.63
331.29 K, 9862.4 kPa | 1090.95
337.92 K, 60055 kPa | 1105.54
338.39 K, 40023 kPa | 1098.06
338.74 K, 20149 kPa | 1090.36
339.67 K, 1074 kPa | 1082.2
345.69 K, 50073 kPa | 1097.48
346.21 K, 30275 kPa | 1089.77
346.22 K, 9873.1 kPa | 1081.75

CCCCn1cc[n+](C)c1.N#CN=C=[N-] [1-butyl-3-methylimidazolium dicyanamide]
Details | mass density [kg/m3]
237.2 K, 1327.9 kPa | 1099.45
242.14 K, 9986.9 kPa | 1099.05
247.77 K, 20189 kPa | 1098.57
248.09 K, 1170.5 kPa | 1092.06
253.33 K, 10197 kPa | 1091.63
253.33 K, 29961 kPa | 1098.11
259.12 K, 20009 kPa | 1091.16
259.17 K, 39931 kPa | 1097.63
259.68 K, 1030 kPa | 1084.28
265.12 K, 50114 kPa | 1097.14
265.24 K, 10141 kPa | 1083.84
265.25 K, 30347 kPa | 1090.66
270.55 K, 18709 kPa | 1083.42
271.07 K, 59859 kPa | 1096.65
271.13 K, 39925 kPa | 1090.18
273.28 K, 2767.5 kPa | 1075.98
277.42 K, 50079 kPa | 1089.67
277.92 K, 9955.1 kPa | 1075.61
277.96 K, 30503 kPa | 1082.82
277.98 K, 10008 kPa | 1075.61
283.67 K, 59955 kPa | 1089.17
284.14 K, 40138 kPa | 1082.33
284.15 K, 1038.8 kPa | 1068.31
284.23 K, 1148.3 kPa | 1068.31
284.47 K, 20074 kPa | 1075.1
291.05 K, 29671 kPa | 1074.21
291.05 K, 30032 kPa | 1074.57
291.06 K, 11299 kPa | 1067.78
291.44 K, 51356 kPa | 1081.75
296.97 K, 19796 kPa | 1067.32
297.26 K, 60158 kPa | 1081.29
298.18 K, 40270 kPa | 1073.65
298.18 K, 40659 kPa | 1074.02
299.21 K, 3719.1 kPa | 1059.78
303.97 K, 10315 kPa | 1059.42
303.97 K, 30176 kPa | 1066.78
304.81 K, 50325 kPa | 1073.5
310.98 K, 40117 kPa | 1066.24
311.01 K, 20033 kPa | 1058.89
311.34 K, 59700 kPa | 1072.99
311.37 K, 676.6 kPa | 1050.98
317.98 K, 49917 kPa | 1065.7
318.27 K, 9911 kPa | 1050.46
318.27 K, 30183 kPa | 1058.34
325.32 K, 60007 kPa | 1065.14
325.56 K, 39796 kPa | 1057.8
326 K, 19921 kPa | 1049.89
326.53 K, 876.3 kPa | 1041.71
333.12 K, 50157 kPa | 1057.22
333.67 K, 9918.1 kPa | 1041.19
333.67 K, 30169 kPa | 1049.32
340.8 K, 60149 kPa | 1056.64
341.31 K, 39980 kPa | 1048.75
341.77 K, 20126 kPa | 1040.59
342.41 K, 781.5 kPa | 1031.94
349.32 K, 50089 kPa | 1048.15
349.8 K, 9629.2 kPa | 1031.41
349.8 K, 30031 kPa | 1040.31
